Results on 8 compounds are retold here after patent publication US9096615B2, “Bridged bicyclic amino thiazine dioxide compounds as inhibitors of beta-secretase and methods of use thereof” (AMGEN INC., priority 2013, dated 2015).

SMILES strings stand for the structures. Where two headings read alike, the source gives them in different places.

In test [1] the test system is Aβ40 in conditioned medium of cells stably expressing Amyloid Precursor Protein (APP). In words: In vitro BACE cell-based assay (HEK cell assay, Aβ40 sandwich ELISA). The conditions noted are these: Homo sapiens, HEK293; average IC50; read-out: BACE1 cell assay IC50. An outline of the steps:
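APP-stable cells were cultured 24 h at 37 °C, then given compound as 10-point dose-response (top 100 μM or 10 μM; 0.1% DMSO final) for 24 h. Aβ40 in conditioned medium was measured by sandwich ELISA (pAb40 capture, biotinylated 6E10 detection, Eu time-resolved fluorescence). IC50 from percent inhibition versus concentration.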

In test [2] the test system is Abeta 40. In words: In vivo inhibition of beta-secretase: percent Abeta 40 reduction in CSF and brain. Also noted: species or system rat. Conditions: after 4 hrs; for inhibition in vivo at 10 mg/kg: 10 mpk. In short, it runs like this: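 Test compound was given by oral gavage in 2% HPMC, 1% Tween80, pH 2.2 (e.g., 30 mg/kg to male Sprague Dawley rats), or IV in 5% EtOH/45% propylene glycol in 5% dextrose. Four hours later, Abeta40 in CSF and in brain homogenate (DEA or Triton extraction) was measured by ECL sandwich ELISA (4G8 capture, Fab40 detection). Reduction is expressed relative to vehicle-treated animals.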

For test [3], the target named is T1, Cathepsin D (Cat D) (Homo sapiens, UniProt P07339).
T1 construct: made in house; host or cells: CHO cells
In words: In vitro enzymatic Cathepsin D (Cat D) FRET assay. The test is classed as biochemical. The conditions noted are these: average IC50; first procedure; read-out: CatD IC50. An outline of the steps: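 Recombinant human Cat D expressed in CHO cells, 9 nM, pre-incubated 1 h with inhibitor in 0.05 M citrate pH 3.5, 10% DMSO, 5 mM CHAPS. Reaction started with 20 nM FRET peptide substrate, run 1 h, stopped with Tris to neutral pH; fluorescence read at ex 500/em 580 nm.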

[4] abbreviates: Abeta 40, rat CSF, read-out: % reduction of rat CSF levels at 10 pmk.
The mark [5] stands for this setting: Abeta 40, rat brain, read-out: % reduction of rat brain levels at 10 mpk.

T1 sequence (P07339 65-412, species assumed): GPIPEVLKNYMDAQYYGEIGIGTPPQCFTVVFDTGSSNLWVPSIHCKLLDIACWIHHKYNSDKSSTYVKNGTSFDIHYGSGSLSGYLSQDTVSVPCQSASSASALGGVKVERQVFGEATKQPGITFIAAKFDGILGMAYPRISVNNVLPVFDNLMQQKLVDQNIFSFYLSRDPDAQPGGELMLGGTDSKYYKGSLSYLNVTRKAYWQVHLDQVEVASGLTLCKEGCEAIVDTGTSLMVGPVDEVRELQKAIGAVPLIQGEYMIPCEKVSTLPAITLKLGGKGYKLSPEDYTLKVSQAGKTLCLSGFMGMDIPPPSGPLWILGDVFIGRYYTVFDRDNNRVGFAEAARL

Consider `COc1cnc(C(=O)Nc2ccc(F)c([C@@]3(C)N=C(N)[C@@]4(C)CC[C@@H]3S4(=O)=O)c2)cn1` [Example 61, N-(3-((1S,2R,5R)-4-amino-2,5-dimethyl-8,8-dioxido-8-thia-3-azabicyclo[3.2.1]oct-3-en-2-yl)-4-fluorophenyl)-5-methoxy-2-pyrazinecarboxamide], for which the IC50 in test [1] stood at 0.002 µM; in test [3] it was 2500 µM. The figures for the inhibition in vivo at 10 mg/kg in test [2] (setting [4]) and in test [2] (setting [5]) were 80% and 79%, respectively.
Regarding `COc1cnc2c(Nc3ccc(F)c([C@@]4(C)N=C(N)[C@@]5(CF)CC[C@@H]4S5(=O)=O)c3)nccc2n1` [Example 41, N-(3-((1S,2R,5R)-4-amino-5-(fluoromethyl)-2-methyl-8,8-dioxido-8-thia-3-azabicyclo[3.2.1]oct-3-en-2-yl)-4-fluorophenyl)-2-methoxypyrido[3,4-b]pyrazin-5-amine], the IC50 in test [1] came out at 0.015 µM; in test [3], 867 µM. Further, the inhibition in vivo at 10 mg/kg in test [2] (setting [4]) is 76%; in test [2] (setting [5]) it was 62%.
The like results for `C#CCOc1cnc(C(=O)Nc2ccc(F)c([C@@]3(C)N=C(N)[C@@]4(CF)CC[C@@H]3S4(=O)=O)c2)c(C)n1` [Example 59, N-(3-((1S,2R,5R)-4-amino-5-(fluoromethyl)-2-methyl-8,8-dioxido-8-thia-3-azabicyclo[3.2.1]oct-3-en-2-yl)-4-fluorophenyl)-3-methyl-5-(2-propyn-1-yloxy)-2-pyrazinecarboxamide] were, in that order, 0.001 µM, 837 µM, 80% and 76%.
With `C#CCOc1ccc(C(=O)Nc2ccc(F)c([C@@]3(C)N=C(N)[C@@]4(CF)CC[C@@H]3S4(=O)=O)c2)nc1` [Example 52, N-(3-((1S,2R,5R)-4-amino-5-(fluoromethyl)-2-methyl-8,8-dioxido-8-thia-3-azabicyclo[3.2.1]oct-3-en-2-yl)-4-fluorophenyl)-5-(2-propyn-1-yloxy)-2-pyridinecarboxamide], the IC50 in test [1] came out at 0.004 µM; in test [3], 811 µM. Besides, the inhibition in vivo at 10 mg/kg in test [2] (setting [4]) was found to be 67%; in test [2] (setting [5]), 62%.
As for `COc1cnc(C(=O)Nc2ccc(F)c([C@@]3(C)N=C(N)[C@@]4(CF)CC[C@@H]3S4(=O)=O)c2)c(C)c1` [Example 42, N-(3-((1S,2R,5R)-4-amino-5-(fluoromethyl)-2-methyl-8,8-dioxido-8-thia-3-azabicyclo[3.2.1]oct-3-en-2-yl)-4-fluorophenyl)-5-methoxy-3-methyl-2-pyridinecarboxamide], the IC50 came to 0.03 µM in test [1] and 757 µM in test [3]. Also, in test [2] (Abeta 40, rat CSF, 3 mpk), the “% reduction of rat CSF levels (3 mpk)” value is given as 21 (3 mpk) %. The “% reduction of rat brain levels (3 mpk)” value in test [2] (Abeta 40, rat brain, 3 mpk) was 0 (3 mpk) %.
With `C[C@]1(c2cc(NC(=O)c3ccc(Cl)cn3)ccc2F)N=C(N)[C@@]2(CF)CC[C@@H]1S2(=O)=O` [Example 77, N-(3-((1S,2R,5R)-4-amino-5-(fluoromethyl)-2-methyl-8,8-dioxido-8-thia-3-azabicyclo[3.2.1]oct-3-en-2-yl)-4-fluorophenyl)-5-chloro-2-pyridinecarboxamide], the 50% inhibitory concentration (IC50) in test [1] is 0.003 µM; in test [3], 570 µM. For the same compound, the inhibition in vivo at 10 mg/kg in test [2] (setting [4]) came to 77%; in test [2] (setting [5]) it was 67%.
In the same order, the values of `C[C@]1(c2cc(Nc3nccc4cc(C#N)cnc34)ccc2F)N=C(N)[C@@]2(CF)CC[C@@H]1S2(=O)=O` [Example 100, 8-((3-((1S,2R,5R)-4-amino-5-(fluoromethyl)-2-methyl-8,8-dioxido-8-thia-3-azabicyclo[3.2.1]oct-3-en-2-yl)-4-fluorophenyl)amino)-1,7-naphthyridine-3-carbonitrile] are 0.004 µM, 337 µM, 67% and 59%.
The like results for `C[C@]1(c2cc(Nc3nccc4nc(OCc5ncco5)cnc34)ccc2F)N=C(N)[C@@]2(C)CC[C@@H]1S2(=O)=O` [Example 140, N-(3-((1S,2R,5R)-4-amino-2,5-dimethyl-8,8-dioxido-8-thia-3-azabicyclo[3.2.1]oct-3-en-2-yl)-4-fluorophenyl)-2-(1,3-oxazol-2-ylmethoxy)pyrido[3,4-b]pyrazin-5-amine] were, in that order, 0.0004 µM, 855 µM, 41% and 39%.

For orientation: IC50 means the concentration that gives 50% inhibition.
